Measurements published in paper PMC7545998, “A snake toxin as a theranostic agent for the type 2 vasopressin receptor” (Theranostics, 2020).

Columns and labels:
[1] = system: Sprague-Dawley rats; test: Pharmacodynamics: diuresis and urine osmolality after single i.p. injection; assay type: in vivo, rat; set-up: k value of diuresis over time, first phase / k value of diuresis over time, second phase: unit not given here; details: for maximal diuresis: between first and second h post-injection; for half-life of diuresis decrease: mono-exponential
Protocol: Diuresis was maximal between the first and second h post-injection (pi), with volumes of 29.5, 45.6, 70.9, 67.6 and 79.1 mL/kg/h for the doses of 3, 10, 30, 100 and 356 nmol/kg, respectively (Figure 3C). […] For the highest dose of 356 nmol/kg, the diuresis decreased quickly during the first 4 h and then lasted for four days.
(§1) Sprague-Dawley rats are aged between 6 and 12 weeks, between 237 g and 545 g and were use up to 3 times. […] Urine was collected at various times, and centrifuged for 30 min at 20,800 g. Urine osmolality was determined with an osmometer (Knauer, Berlin, Germany). For the pharmacokinetic experiments, a catheter was implanted in the rat jugular vein five days before the experiment. Blood samples of 400 μl were taken at various times under heparin conditions. Blood was centrifuged at 2000 g for 5 min at 4 °C and plasma was frozen at -20 °C.
Sample preparation is described in Table S1. […] The mobile phase consisted of 0.1% formic acid in water (A) and 0.1% formic acid in acetonitrile (B) running in a gradient mode from B 2% to B 100% in 3 min. […] The mass spectrometer was operated in positive ESI and MRM mode. […] A model was selected based on the extravascular (i.p.) route of administration. For the i.p. route, concentration at time zero was assumed to be zero. For each rat, the first concentration below the LLOQ was set at LLOQ/2 for calculation of PK parameters. The area under the plasma concentration versus time curve (AUC) was calculated using the linear trapezoidal method (linear interpolation). When appropriate, the terminal elimination phase of the PK profile was estimated based on the best fit (r^2) using at least the last six observed concentrations. […] The same approach was used to model diuresis over time and two k values were obtained as 0.37774 and 0.02326. Lastly, the PK/PD correlation was achieved after calculating concentrations and diuresis volumes over time based on the equation y = A0*e^-kt where A0 was the computed concentration or diuresis volume at the origin of each phase.

[2] = system: Sprague-Dawley rats; test: Diuresis and urine osmolality with daily i.p. injection of 3 nmol/kg for 4 days; assay type: in vivo, rat; details: daily i.p. 3 nmol/kg; for Diuresis Average / Excretion Average / Osmolarity Average: N=5
Protocol: We injected this dose daily for 4 days and measured urine volume and osmolality.
as §1

[3] = 356 nmol/kg i.p., bi-exponential analysis
[4] = single i.p. 1 nmol/kg, 0-24 h, n=6
[5] = single i.p. 3 nmol/kg, 0-24 h, n=6
[6] = single i.p. 3 nmol/kg, 24 - 48 h, n=6
[7] = single i.p. 10 nmol/kg, 0-24 h, n=11
[8] = single i.p. 10 nmol/kg, 24 - 48 h, n=11
[9] = single i.p. 30 nmol/kg, 0-24 h, n=11
[10] = single i.p. 30 nmol/kg, 24 - 48 h, n=11
[11] = single i.p. 100 nmol/kg, 0-24 h, n=12
[12] = single i.p. 100 nmol/kg, 24 - 48 h, n=12
[13] = single i.p. 356 nmol/kg, 0-24 h, n=17
[14] = single i.p. 356 nmol/kg, 24 - 48 h, n=17
[15] = single i.p. 356 nmol/kg, 72 h (24-h period), n=12
[16] = single i.p. 356 nmol/kg, 96 h (24-h period), n=12

mambaquaretin [MQ1]
maximal diuresis ([1]; 3 nmol/kg i.p.): 0.492 mL/min/kg | half-life of diuresis decrease ([1]; 3 nmol/kg i.p.): 3.7 h | maximal diuresis ([1]; 10 nmol/kg i.p.): 0.76 mL/min/kg | half-life of diuresis decrease ([1]; 10 nmol/kg i.p.): 2.4 h | maximal diuresis ([1]; 30 nmol/kg i.p.): 1.18 mL/min/kg | half-life of diuresis decrease ([1]; 30 nmol/kg i.p.): 2.4 h | maximal diuresis ([1]; 100 nmol/kg i.p.): 1.13 mL/min/kg | half-life of diuresis decrease ([1]; 100 nmol/kg i.p.): 1.2 h | maximal diuresis ([1]; 356 nmol/kg i.p.): 1.32 mL/min/kg | fast half-life (T1/2α) of diuresis [1, 3]: 1.2 h | slow half-life (T1/2β) of diuresis [1, 3]: 27.3 h | k value of diuresis over time, first phase ([1]; 356 nmol/kg i.p., modelled): 0.3777 | k value of diuresis over time, second phase ([1]; 356 nmol/kg i.p., modelled): 0.02326 | diuresis and osmolality compared to control ([1]; single 1 nmol/kg i.p.): statistically unchanged | Diuresis Average [1, 4]: 0.039 mL/min/kg | Excretion Average [1, 4]: 2206 µosm/h/kg | Osmolarity Averag [1, 4]: 1158 mOsmol/kgH2O | Diuresis Average [1, 5]: 0.0855 mL/min/kg | Excretion Average [1, 5]: 2710 µosm/h/kg | Osmolarity Averag [1, 5]: 503 mOsmol/kgH2O | Diuresis Average [1, 6]: 0.0255 mL/min/kg | Excretion Average [1, 6]: 3077 µosm/h/kg | Osmolarity Averag [1, 6]: 2000 mOsmol/kgH2O | Diuresis Average [1, 7]: 0.13 mL/min/kg | Excretion Average [1, 7]: 2092 µosm/h/kg | Osmolarity Averag [1, 7]: 273 mOsmol/kgH2O | Diuresis Average [1, 8]: 0.0263 mL/min/kg | Excretion Average [1, 8]: 2117 µosm/h/kg | Osmolarity Averag [1, 8]: 1332 mOsmol/kgH2O | Diuresis Average [1, 9]: 0.1742 mL/min/kg | Excretion Average [1, 9]: 2280 µosm/h/kg | Osmolarity Averag [1, 9]: 214 mOsmol/kgH2O | Diuresis Average [1, 10]: 0.0375 mL/min/kg | Excretion Average [1, 10]: 2064 µosm/h/kg | Osmolarity Averag [1, 10]: 937 mOsmol/kgH2O | Diuresis Average [1, 11]: 0.2138 mL/min/kg | Excretion Average [1, 11]: 2046 µosm/h/kg | Osmolarity Averag [1, 11]: 162 mOsmol/kgH2O | Diuresis Average [1, 12]: 0.0457 mL/min/kg | Excretion Average [1, 12]: 1930 µosm/h/kg | Osmolarity Averag [1, 12]: 703 mOsmol/kgH2O | Diuresis Average [1, 13]: 0.3492 mL/min/kg | Excretion Average [1, 13]: 2658 µosm/h/kg | Osmolarity Averag [1, 13]: 136 mOsmol/kgH2O | Diuresis Average [1, 14]: 0.161 mL/min/kg | Excretion Average [1, 14]: 2617 µosm/h/kg | Osmolarity Averag [1, 14]: 283 mOsmol/kgH2O | Diuresis Average [1, 15]: 0.1 mL/min/kg | Excretion Average [1, 15]: 2617 µosm/h/kg | Osmolarity Averag [1, 15]: 455 mOsmol/kgH2O | Diuresis Average [1, 16]: 0.0627 mL/min/kg | Excretion Average [1, 16]: 2838 µosm/h/kg | Osmolarity Averag [1, 16]: 754 mOsmol/kgH2O | half-life of diuresis decrease ([2]; day 1): 1.6 h | Diuresis Average ([2]; day 1, 24-h period): 0.105 mL/min/kg | Excretion Average ([2]; day 1, 24-h period): 1919 µOsm/h/kg | Osmolarity Average ([2]; day 1, 24-h period): 328 mOsm/kg H2O | half-life of diuresis decrease ([2]; day 2): 1.3 h | Diuresis Average ([2]; day 2, 24-h period): 0.0983 mL/min/kg | Excretion Average ([2]; day 2, 24-h period): 1820 µOsm/h/kg | Osmolarity Average ([2]; day 2, 24-h period): 317 mOsm/kg H2O | half-life of diuresis decrease ([2]; day 3): 1.3 h | Diuresis Average ([2]; day 3, 24-h period): 0.1 mL/min/kg | Excretion Average ([2]; day 3, 24-h period): 1805 µOsm/h/kg | Osmolarity Average ([2]; day 3, 24-h period): 313 mOsm/kg H2O | half-life of diuresis decrease ([2]; day 4): 1.6 h | Diuresis Average ([2]; day 4, 24-h period): 0.095 mL/min/kg | Excretion Average ([2]; day 4, 24-h period): 1940 µOsm/h/kg | Osmolarity Average ([2]; day 4, 24-h period): 326 mOsm/kg H2O
